By inhibition is commonly meant the drop in the measured response relative to a control, in per cent. Usually pIC50 stands for −log10 of the IC50, conventionally taken in molar units. A higher pIC50 goes with a low IC50.

Experimental findings from US8217060B2, “Benzimidazole derivatives useful as TRP M8 receptor modulators” (Janssen Pharmaceutica, NV, priority 2009, dated 2012) are described below.

pIC50: −log10 of the molar value. Where a name gives a salt, the structure may show the parent alone.

In experiment [1] the target is T1, canine TRPM8 (Canis lupus familiaris, UniProt Q1A7N1).
T1 construct: expressed in transfected cells
T1 sequence (Q1A7N1 1-1104): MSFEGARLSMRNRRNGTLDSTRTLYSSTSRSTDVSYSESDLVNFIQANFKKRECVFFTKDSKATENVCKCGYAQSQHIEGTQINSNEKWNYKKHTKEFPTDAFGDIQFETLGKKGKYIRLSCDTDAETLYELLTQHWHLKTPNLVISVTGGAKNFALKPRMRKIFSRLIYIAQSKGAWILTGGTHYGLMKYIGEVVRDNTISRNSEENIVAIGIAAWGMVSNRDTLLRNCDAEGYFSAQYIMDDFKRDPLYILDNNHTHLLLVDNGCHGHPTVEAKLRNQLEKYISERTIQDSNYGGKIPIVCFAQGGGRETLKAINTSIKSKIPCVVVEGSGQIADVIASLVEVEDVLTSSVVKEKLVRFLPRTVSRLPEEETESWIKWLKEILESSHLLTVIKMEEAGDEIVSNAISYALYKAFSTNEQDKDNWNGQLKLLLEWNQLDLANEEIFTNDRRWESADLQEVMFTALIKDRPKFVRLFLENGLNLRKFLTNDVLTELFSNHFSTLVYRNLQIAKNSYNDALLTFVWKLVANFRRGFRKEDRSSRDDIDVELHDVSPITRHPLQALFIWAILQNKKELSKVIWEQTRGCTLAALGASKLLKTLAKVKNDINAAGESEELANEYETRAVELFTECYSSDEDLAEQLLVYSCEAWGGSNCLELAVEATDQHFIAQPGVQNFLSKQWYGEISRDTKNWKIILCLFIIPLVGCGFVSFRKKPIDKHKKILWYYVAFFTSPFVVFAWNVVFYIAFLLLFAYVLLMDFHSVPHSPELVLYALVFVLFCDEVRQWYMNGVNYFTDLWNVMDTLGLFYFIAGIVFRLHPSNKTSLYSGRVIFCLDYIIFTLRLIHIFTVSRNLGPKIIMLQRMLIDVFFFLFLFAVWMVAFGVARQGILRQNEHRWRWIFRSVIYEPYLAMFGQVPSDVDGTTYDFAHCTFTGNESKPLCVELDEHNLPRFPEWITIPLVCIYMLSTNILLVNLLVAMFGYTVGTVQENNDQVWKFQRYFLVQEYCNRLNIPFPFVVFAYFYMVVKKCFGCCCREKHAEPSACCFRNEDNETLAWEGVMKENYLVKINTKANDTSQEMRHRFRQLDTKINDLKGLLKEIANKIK
Put plainly: In Vitro Canine TRPM8 Functional Assay (icilin-induced intracellular Ca2+ fluorescence, FLIPR/FDSS). In kind it is cell-based. The settings on record: HEK293 cells stably expressing canine TRPM8; for inhibition at 0.2 µM: 0.2 μM test compound, icilin challenge; for pIC50: icilin challenge (~80% maximal response), eight-point dose-response. On the procedure: The functional activity of representative compounds of the formula (I) of the present invention were measured by measuring changes in intracellular calcium concentration using a Ca^2+-sensitive fluorescent dye. The changes in fluorescent signal were monitored by a fluorescence plate reader, either a FLIPR™ (Molecular Devices) or FDSS (Hamamatsu).
HEK293 cells stably expressing canine TRPM8 were routinely grown as monolayers in Dulbecco's minimum essential medium supplemented with 10% FBS, 2 mM L-glutamine, 100 units/mL penicillin, 100 ug/mL streptomycin and 400 μg/mL G418. Cells were maintained in 5% CO2 at 37° C. At 24 hrs prior to assay, cells were seeded in black wall, clear-base poly-D-lysine coated 384-well plates (BD Biosciences, NJ, USA) at a density of 5,000 cells per well in culture medium and grown overnight in 5% CO2 at 37° C. On assay day, growth media was removed and cells were loaded with Calcium 3 Dye (Molecular Devices) for 35 min at 37° C., under 5% CO2 and then for 25 min at room temperature and atmosphere. Subsequently, cells were tested for agonist-induced increases in intracellular Ca^2+ levels using FLIPR™ or FDSS. Cells were challenged with compounds of the formula (I) (at varying concentrations) and intracellular Ca^2+ was measured for 5 min prior to the addition of icilin to all wells to achieve a final concentration that produces approximately an 80% maximal response.
Basal FI was subtracted prior to normalizing data to percent of maximal response. Curves were generated using the average of quadruplicate wells for each data point, were analyzed using nonlinear regression of either sigmoidal dose response or sigmoidal dose response (variable slope). Finally, the EC50 and IC50 values were calculated with the best-fit dose curve determined by GraphPad Prism

Experiment [2] deals with Male Sprague Dawley rats. Put plainly: Inhibition of Icilin-Induced “Wet-Dog” Shakes in Rats. The format is in vivo. The settings on record: 60 min before icilin 3.0 mg/kg i.p., rat. On the procedure:
Male Sprague Dawley rats ([…], Charles River Labs, n=6-9/treatment) were used to evaluate the ability of test compounds to block icilin-induced “wet-dog” shakes (WDS). The test compound was administered in 10% hydroxypropyl-β-cyclodextrin (HP β CD), p.o., 60 minutes before icilin. Icilin was then administered in 10% solutol/H2O, at 3.0 mg/kg, i.p. and spontaneous “wet-dog” shakes were counted over a 10 minute period, 10 minutes following the icilin injection.

Experiment [3] relates to Male Sprague Dawley rats. In words: Chronic Constriction Injury (CCI)-Induced Model of Neuropathic Pain - Acetone-Induced Hypersensitivity. The following applies: 10 mg/kg p.o. in 10% HP β CD, rat. In kind it is in vivo. An excerpt: Male Sprague Dawley rats (225-450 g; n=5-8/treatment) were used to evaluate the ability of test compounds to reverse CCI-induced cold hypersensitivity. Four loose ligatures of 4-0 chromic gut were surgically placed around the left sciatic nerve under inhalation anesthesia as described by Bennett et al (BENNETT G. J. et al., “A Peripheral Mononeuropathy in Rat that Produces Disorders of Pain Sensation Like Those Seen in Man”, Pain, 1988, pp. 87-107, Vol 33(1)). Fourteen to 35 days following CCI surgery, subjects were placed in elevated observation chambers containing wire mesh floors and five applications of acetone (0.05 mL/application separated by approximately 5 minutes) were spritzed onto the plantar surface of the paw using a multidose syringe. An abrupt withdrawal or lifting of the paw was considered a positive response. The number of positive responses was recorded for each rat over the five trials. Following baseline withdrawal determinations, test compounds were administered in 10% hydroxypropyl-β-cyclodextrin (HP β CD), p.o. The number of withdrawals was re-determined at 2, 3 and 4 hours after compound administration.

Turning to `FC(F)(F)Oc1ccccc1-c1ccc2[nH]c(/C=C/C3CCCCC3)nc2c1` [Compound 1, 2-(2-Cyclohexyl-vinyl)-5-(2-trifluoromethoxy-phenyl)-1H-benzimidazole hydrochloride salt], in experiment [1], the inhibition at 0.2 µM was 93% and the negative-log IC50 (pIC50) is 7.85. Moreover, the “% Inhibition of icilin-induced “wet-dog” shakes” value in experiment [2] (30 mg/kg p.o.) was determined as 48%.
For the compound `FC1(F)CCC(/C=C/c2nc3cc(-c4ccccc4C(F)(F)F)ccc3[nH]2)CC1` [Compound 30, 2-[2-(4,4-Difluoro-cyclohexyl)-vinyl]-5-(2-trifluoromethyl-phenyl)-1H-benzimidazole hydrochloride salt], in experiment [1], the inhibition at 0.2 µM came out at 102% and the negative-log IC50 (pIC50) was 8.52. Further, the “% Inhibition of icilin-induced “wet-dog” shakes” value in experiment [2] (10 mg/kg p.o.) turned out to be 98%.
Taken in the same sequence, the figures for `FC(F)(F)c1ccccc1-c1ccc2[nH]c(/C=C/C3CCOCC3)nc2c1` [Compound 50, (E)-2-[2-(Tetrahydro-pyran-4-yl)-vinyl]-5-(2-trifluoromethyl-phenyl)-1H-benzimidazole hydrochloride] were 101%, 7.77 and 89%.
For `FC(F)(F)c1cccc(C(F)(F)F)c1-c1ccc2[nH]c(/C=C/C3CCCCC3)nc2c1` [Compound 58, (E)-5-(2,6-Bis-trifluoromethyl-phenyl)-2-(2-cyclohexyl-vinyl)-1H-benzimidazole] the same measures were 83%, 8.05 and 30%.
Taken in the same sequence, the figures for `Fc1cccc(OC(F)(F)F)c1-c1ccc2[nH]c(/C=C/C3CCCCC3)nc2c1` [Compound 59, (E)-2-(2-Cyclohexyl-vinyl)-5-(2-fluoro-6-trifluoromethoxy-phenyl)-1H-benzimidazole] were 96%, 8.22 and 75%.
For the compound `CC1(C)CCC(/C=C/c2nc3cc(-c4ccccc4C(F)(F)F)ccc3[nH]2)CC1` [Compound 64, (E)-2-[2-(4,4-Dimethyl-cyclohexyl)-vinyl]-5-(2-trifluoromethyl-phenyl)-1H-benzoimidazole hydrochloride], in experiment [1], the inhibition at 0.2 µM is 98% and the negative-log IC50 (pIC50) is 7.64.
Taken in the same sequence, the figures for `CC1(C)CCC(/C=C/c2nc3cc(-c4c(F)cccc4F)ccc3[nH]2)CC1` [Compound 65, (E)-5-(2,6-Difluoro-phenyl)-2-[2-(4,4-dimethyl-cyclohexyl)-vinyl]-1H-benzoimidazole trifluoroacetic acid salt] were 96% and 7.26.
Consider `CC1(/C=C/c2nc3cc(-c4ccccc4C(F)(F)F)ccc3[nH]2)CCOCC1` [Compound 66, (E)-2-[2-(4-Methyl-tetrahydro-pyran-4-yl)-vinyl]-5-(2-trifluoromethyl-phenyl)-1H-benzimidazole], for which, in experiment [1], the inhibition at 0.2 µM was 101% and the pIC50 is 7.51.
For `CC1(/C=C/c2nc3cc(-c4c(C(F)(F)F)cccc4C(F)(F)F)ccc3[nH]2)CCOCC1` [Compound 67, (E)-5-(2,6-Bis-trifluoromethyl-phenyl)-2-[2-(4-methyl-tetrahydro-pyran-4-yl)-vinyl]-1H-benzimidazole] the same measures were 100% and 7.89.
In the case of `C/C(=C\c1nc2cc(-c3ccccc3C(F)(F)F)ccc2[nH]1)C1CCCCC1` [Compound 69, (E)-2-(2-Cyclohexyl-propenyl)-5-(2-trifluoromethyl-phenyl)-1H-benzimidazole], in experiment [1], the inhibition at 0.2 µM amounted to 102% and the negative-log IC50 (pIC50) is 7.96.
Taken in the same sequence, the figures for `FC(F)(F)c1ccccc1-c1ccc2[nH]c(/C=C/C34CCC(Br)(CC3)CC4)nc2c1` [Compound 70, (E)-2-[2-(4-Bromo-bicyclo[2.2.2]oct-1-yl)-vinyl]-5-(2-trifluoromethyl-phenyl)-1H-benzoimidazole] were 97% and 7.96.
Regarding `Cl.FC(F)(F)c1ccccc1-c1ccc2[nH]c(/C=C/C3CCCCC3)nc2c1` [Compound 71, 2-(2-Cyclohexyl-vinyl)-5-(2-trifluoromethyl-phenyl)-1H-benzoimidazole hydrochloride], the entries for the “% Inhibition (acetone-evoked paw withdrawals, CCI)” value in experiment [3] (2 h after administration), in experiment [3] (3 h after administration) and in experiment [3] (4 h after administration) were 91%, 91% and 77%, respectively. In addition, in experiment [1], the inhibition at 0.2 µM was found to be 94%. Besides, the pIC50 in experiment [1] is 8.05. In experiment [2] (30 mg/kg p.o.), the “% Inhibition of icilin-induced “wet-dog” shakes” value is recorded as 90%.
